Patent US10550165B2, “Peptide for inducing regeneration of tissue and use thereof” (STEMRIM INC., priority 2011, dated 2020)

Experiments:
[1] = tested on: PDGFRα-positive, CD44-positive cells in the peripheral blood; assay: Mobilization of PDGFRα-positive, CD44-positive cells into peripheral blood (FACS); format: in vivo, mouse; conditions: 10 μg via the caudal vein, C57Bl6 mice, blood after 12 hours; PBS group 1.33%
Procedure: 10 μg of synthetic peptide (amino acids of positions 1 to 44) was dissolved in 200 μl of PBS and administered to C57B16 mice (female, 8 weeks old) via the caudal vein using a syringe with 30-gauge needle. An equal volume of PBS was administered as a negative control. After 12 hours, peripheral blood was collected from the left ventricle of the heart under systemic anesthesia with isoflurane. After adding 3 ml of PBS (Nacalai tesque; Cat. 14249-95), 3 ml of Ficoll-Paque Plus (GE Healthcare; Cat. 17-1440-02) was overlaid onto the blood. The blood was centrifuged in a centrifuge at 400 G and 25° C. for 45 minutes. The upper serum layer was discarded, and only the cells seen as a white band in the intermediate layer were collected. Then, 45 ml of PBS was added to the collected cells, and centrifuged in a centrifuge at 800 G and 25° C. for 20 minutes. After the supernatant was discarded, 10 ml of PBS was added and centrifuged at 1500 rpm and 25° C. for 10 minutes. The supernatant was discarded and 1 ml of hemolysis buffer (HLB; Immuno-Biological Laboratories) was added to the cells. After pipetting, the cells were allowed to stand for 5 minutes. Then, 10 ml of PBS was added to the cells and centrifuged at 1500 rpm and 25° C. for 10 minutes. […] The cells prepared as described above were analyzed using FACSCant™ II.

[2] = tested on: rat cerebral infarction model; assay: Middle cerebral artery thread occlusion model (cerebral infarction); format: in vivo; conditions: 50 μg caudal vein
Excerpt: Eight- to ten-week-old male Wister rats were used. Rats were anesthetized by isoflurane inhalation while warming on a keep-warm mat with a body temperature monitor. After confirming that the anesthetic effect was sufficient, cervical hair was removed to expose the skin. The surgical site was sterilized with alcohol. Along the cervical median line, the skin was incised with a scalpel. After the right external carotid artery was ligated and the right common carotid artery was pressurized to temporarily block the blood flow, an occlusion thread made of #4 monofilament nylon with siliconized tip was inserted into the right external carotid artery toward the right internal carotid artery. While releasing the pressure on the common carotid artery, the occlusion thread was advanced along with the blood stream from the internal carotid artery up to the bifurcation to the middle cerebral artery so that the blood flow was blocked. Furthermore, the thread around the right common carotid artery was ligated to completely block the blood flow for 50 minutes. After removing the occlusion thread and loosening the ligature at the common carotid artery, the skin was sutured to complete the surgery.
50 μg of synthetic peptide (1-44) was administered at the caudal vein. The first administration was carried out 6 hours after the production of cerebral infarction. Then, the peptide was administered five times at 24-hour intervals (five days in total).
After 14 days of the final drug administration, the rats were given sufficiently deep anesthesia, and placed in a container filled with carbon dioxide. The complete arrest of heartbeat and breathing was confirmed. Brains were excised and immediately fixed by immersion in buffered 10% formalin. After paraffin embedding, thin sections were prepared and stained with hematoxylin-eosin. Four sections were prepared from each brain at 1.92 mm anterior to bregma (1.92), 0.60 mm anterior to bregma (0.60), 1.56 mm posterior to bregma (−1.56), and 3.24 mm posterior to bregma (−3.24), and the areas were compared.

Substance: synthetic peptide (1-44): chemically synthesized HMGB1 peptide, amino acids 1 to 44, mouse HMGB1 sequence (MGKGDPKKPRGKMSSYAFFVQTCREEHKKKHPDASVNFSEFSKK; UniProt P63158 1-44, looked up, fragment)
- proportion of PDGFRα-positive, CD44-positive cells in the peripheral blood, average [1]: 4.33%
- infarction area (% ratio to normal brain area in the right brain), four sections ([2]; five administrations, versus negative control (PBS), FIG. 17): significantly reduced as compared to the negative control group
- animals showing expansion of the infarction to the cortex ([2]; N=10, first 6 h after infarction, five times at 24-hour intervals, 14 days after final administration, negative control 8 of 11): only one mouse showed expansion of the infarction to the cortex
- animals in which the infarction was limited in the basal nucleus ([2]; N=10, five administrations, 14 days after final administration): 9
